# Patent US4425356A, “Lankacidin derivatives used in swine husbandry” (Takeda Chemical Industries, Ltd., priority 1980, dated 1984)
# Like-named read-outs stand apart in the source and are kept apart here.
# Tests used:
# [1] = tested on: Treponema hyodysenteriae 78/A strain; test: therapeutic administration in pigs showing clinical signs of swine dysentery, Test Examples 8-9; type: in vivo; conditions: for Condition of feces: Table 9, individual pig
# Protocol: This test was conducted under the conditions of so-called therapeutic administration. […] The method of infection was the same as in Test Example 5. […] Simultaneously with showing of the signs, the pigs were provided with a feed containing 50 ppm of lankacidin C. […] After 2 days, the viable count for the pathogen in feces was below the detection limit (10^2 CFU/g).
# The condition of feces was rated at one of the following four classes:
# .circle. normal; loose; diarrheal; .circleincircle. mucous and bloody
# count is below the detection limit (10^2 CFU/g).
# The symbol * indicates those days on which the feed containing 50 ppm of
# lankacidin C was given.
# Lankacidins were tested for therapeutic effects in swine dysentery under therapeutic conditions in the same manner as in Test Example 8. The effects were judged based on the condition of feces.
# The condition of feces was rated at one of the following four classes;
# The symbol * indicates the days on which the feed containing 50 ppm of th
# [2] = acute toxicity tests with mice; conditions: mouse, in vivo
# Text: The toxicity of compound (I) in animals is very low.
# [3] = tested on: Treponema hyodysenteriae 78/A strain; test: efficacy against swine dysentery under experimental infection conditions in pigs (drug in feed), Test Examples 5-7; type: in vivo, Landrace pigs
# Protocol: Lankacidin C was tested for efficacy against swine dysentery under experimental infection conditions. Thus, twelve 6-week-old Landrace pigs (4 per group) were used. The test drug was admixed to a concentration of 100 ppm with the domestically formulated starter feed for young pigs without antibiotics. The animals were provided with the ration ad libitum. Infection of the pigs was effected by direct intragastrical administration to the SPF pigs of an inoculum prepared by preliminary anaerobic cultivation of the Treponema hyodysenteriae 78/A strain on a 5% horse blood added agar plate, mashing together with the culture medium and admixing with 5% mucin added phosphate buffer. Colonic contents and mucosa were collected from pigs which developed typical signs of swine dysentery, and diluted two-fold with 5% mucin added phosphate buffer. The dilution was used as the final inoculum, and 100 ml of the dilution was directly injected into the stomach of test pigs at the age of 7 weeks (fasted for 24 hours before infection). The pigs were fed for 21 days following infection.
# The data are each the mean value per head for the 21day period from
# infection to autopsy. Different alphabetic letters on the same line
# indicate that there is a significant difference between the data to which
# they are attached (P <0.05).
# Lankacidin C was tested at concentrations in feed of 100 ppm and lower by the same method as in Test Example 5, with carbadox, a commonly used anti-swine-dysentery agent, for comparison.
# The anti-swine-dysentery effects of 10 ppm each of lankacidin A and lankacidin C 14-propionate were examined by the procedure of Test Example 6.
# [4] = tested on: Treponema hyodysenteriae; test: in vitro antibacterial activity (MIC, agar dilution method), Test Examples 1-3; type: cell-based; conditions: 37° C., 2 days, anaerobic; for MIC: Brachyspira hyodysenteriae, 48 h, read-out: Minimum Inhibitory Concentration
# Protocol: Several agents were tested for in vitro antibacterial activity against Treponema hyodysenteriae, the pathogenic bacteria causing swine dysentery, by the method of testing drug sensitivity of Treponema hyodysenteriae (Kashiwazaki et al. Abstracts of Papers presented at the 82nd Meeting of the Japanese Society of Veterinary Science, page 101, 1976).
# (1) Strains: These strains belong to Treponema hyodysenteriae isolated
# from the bloody mucous faeces of dysenteric pigs in Japan.
# (2) Antimicrobial activity assay: Agar dilution method
# (3) Inoculum size: A loopful of bacterial suspension (10^6 CFU/ml)
# (4) Cultural conditions: GasPak anaerobic system (BBL), 37° C., 2
# Typical agents among compound (I) were tested for in vitro antibacterial activity by the same method as in Test Example 1.
# The experimental conditions are the same as in Test Example 1 (Table 1).
# Agents of compound (I) were tested for in vitro antibacterial activity by the same method as in Test Example 1.
# [5] = 10 ppm in feed, 21-day test period
# [6] = 10 ppm in feed, 21 day period, mean per head
structure (smiles),measurement,setting,value
"CC(=O)OC1C=CC(C)=CCC(O)C=CC(C)=CC(NC(=O)C(C)=O)C2(C)C(=O)OC(C1)C(C)C2=O (stereo not drawn) [Lankacidin A, lankacidin A]",therapeutic effect in swine dysentery (in words),[1]; 50 ppm in feed,therapeutically effective
same,Condition of feces,"[1]; 50 ppm in feed days 0-6, day 7",.circle.
same,Condition of feces,"[1]; 50 ppm in feed days 0-6, day 8",.circle.
same,Condition of feces,"[1]; 50 ppm in feed days 0-6, day 9",.circle.
same,Condition of feces,"[1]; 50 ppm in feed days 0-6, day 10",.circle.
same,Condition of feces,"[1]; 50 ppm in feed days 0-6, day 11",.circle.
same,Condition of feces,"[1]; 50 ppm in feed days 0-6, day 12",.circle.
same,Condition of feces,"[1]; 50 ppm in feed days 0-6, day 13",.circle.
same,Condition of feces,"[1]; 50 ppm in feed days 0-6, day 14",.circle.
same,Condition of feces,"[1]; 50 ppm in feed days 0-6, day 15",.circle.
same,Condition of feces,"[1]; 50 ppm in feed days 0-6, day 16",.circle.
same,Condition of feces,"[1]; 50 ppm in feed days 0-6, day 17",.circle.
same,Condition of feces,"[1]; 50 ppm in feed days 0-6, day 18",.circle.
same,Condition of feces,"[1]; 50 ppm in feed days 0-6, day 19",.circle.
same,Condition of feces,"[1]; 50 ppm in feed days 0-6, day 20",.circle.
same,Condition of feces,"[1]; 50 ppm in feed days 0-6, day 21",.circle.
same,Condition of feces,"[1]; 50 ppm in feed, day 0 after manifestation of signs",.circleincircle.
same,Condition of feces,"[1]; 50 ppm in feed, day 1",.circle.
same,Condition of feces,"[1]; 50 ppm in feed, day 2",.circle.
same,Condition of feces,"[1]; 50 ppm in feed, day 3",.circle.
same,Condition of feces,"[1]; 50 ppm in feed, day 4",.circle.
same,Condition of feces,"[1]; 50 ppm in feed, day 5",.circle.
same,Condition of feces,"[1]; 50 ppm in feed, day 6",.circle.
same,LD50,"[2]; ip, intraperitoneal, read-out: intraperitoneal LD50",8000 to 10000 mg/kg
same,LD50,"[2]; oral, read-out: oral LD50",> 10000 mg/kg
same,"Number of pigs from which the pathogen was detected, in colonic mucosa",[3]; 10 ppm in feed,0
same,"Number of pigs from which the pathogen was detected, in feces",[3]; 10 ppm in feed,0
same,Number of pigs showing colonic lesions,[3]; 10 ppm in feed,0
same,Number of days on which diarrhea was observed,[3]; [5],0 days
same,Number of days on which mucous bloody stool was observed,[3]; [5],0 days
same,Number of pigs showing signs of infection/number of pigs used,[3]; [5],0/4
same,Body weight gain,[3]; [6],567 grams/day
same,Feed conversion,[3]; [6],1.76
same,Feed intake,[3]; [6],21.0 kg
same,Body weight at the time of completion of test,"[3]; 10 ppm in feed, mean per head",22.9 kg
same,effect against swine dysentery (in words),"[3]; pig, in vivo",distinctly effective against swine dysentery
same,MIC,[4]; strain 78/A,3.13 mg/L
same,MIC,[4]; strain CD1 (CD-1),6.25 mg/L
same,MIC,[4]; strain DJ70P1,6.25 mg/L
same,MIC,[4]; strain MK-2,3.13 mg/L
same,Minimum Inhibitory Concentration,[4]; strain DJ70P1,3.13 µg/mL
same,Minimum Inhibitory Concentration,[4]; strain MK-2,6.25 µg/mL
